Measured values taken from ChEMBL document CHEMBL3616419, “Synthesis, structure-activity relationship and biological evaluation of novel nitrogen mustard sophoridinic acid derivatives as potential anticancer agents” (Bioorg Med Chem Lett, 2015).
Values after ≈ are worked out from the molar mass of the structure shown.

Key:
HepG2 = assay: Antiproliferative activity against human HepG2 cells incubated for 48 hrs by MTT assay; assay type: functional, cell-based; conditions: HepG2, 48 h
[1] = Stability of the compound; assay type: physicochemical
[2] = Antitumor activity against […] HepA cells xenografted in KM mouse assessed as inhibition of tumor weight at 72 mg/kg, iv dosed for 10 days relative to untreated control; assay type: functional; conditions: 240 h, read-out: TGI
Mus musculus = assay: Toxicity in […] HepA cells xenografted KM mouse assessed as reduction in body weight at 18 to 72 mg/kg, iv dosed for 10 days relative to untreated control; assay type: organism-based; set-up: scale not given: the % may be the effect or the level left; conditions: in vivo, 240 h
[3] = Antitumor activity against […] HepA cells xenografted in KM mouse assessed as inhibition of tumor weight at 36 mg/kg, iv dosed for 10 days relative to untreated control; assay type: functional; conditions: 240 h, read-out: TGI
[4] = Antitumor activity against […] HepA cells xenografted in KM mouse assessed as inhibition of tumor weight at 18 mg/kg, iv dosed for 10 days relative to untreated control; assay type: functional; conditions: 240 h, read-out: TGI

SMILES | IC50 (HepG2) | Stability [1] | further results
N[C@@H](Cc1ccc(N(CCCl)CCCl)cc1)C(=O)O [MELPHALAN] | 0.41 µg/mL (≈ 1.34 µM) | – | –
CCOC(=O)CCC[C@H]1[C@H]2CCCN3CCC[C@H](CN1C(=O)c1ccc(N(CCCl)CCCl)cc1)[C@@H]23 | 91.2 µg/mL (≈ 169 µM) | Unstable | –
O=C(CCC[C@H]1[C@H]2CCCN3CCC[C@H](CN1Cc1ccccc1)[C@@H]23)Nc1ccc(N(CCCl)CCCl)cc1 | 0.47 µg/mL (≈ 0.822 µM) | – | inhibition in vivo at 72 mg/kg [2]: 58.2%; Activity (Mus musculus): <= 20%; inhibition in vivo at 36 mg/kg [3]: 47.3%; inhibition in vivo at 18 mg/kg [4]: 42.5%
O=C(CCC[C@H]1[C@H]2CCCN3CCC[C@H](CN1Cc1ccccc1)[C@@H]23)OCc1ccc(N(CCCl)CCCl)cc1 | 1.63 µg/mL (≈ 2.78 µM) | – | –
O=C(CCC[C@H]1[C@H]2CCCN3CCC[C@H](CN1Cc1ccccc1)[C@@H]23)N(CCCl)CCCl | 2.74 µg/mL (≈ 5.7 µM) | – | –
COC(=O)CCC[C@@H]1NC[C@H]2CCCN3CCC[C@H]1[C@H]23 | 1650 µg/mL (≈ 5890 µM) | – | –
CCCCOC(=O)CCC[C@@H]1NC[C@H]2CCCN3CCC[C@H]1[C@H]23 | 136 µg/mL (≈ 421 µM) | – | –
CCCOC(=O)CCC[C@H]1[C@H]2CCCN3CCC[C@H](CN1C(=O)c1ccc(N(CCCl)CCCl)cc1)[C@@H]23 | 44.6 µg/mL (≈ 80.7 µM) | Unstable | –
CC(C)OC(=O)CCC[C@H]1[C@H]2CCCN3CCC[C@H](CN1C(=O)c1ccc(N(CCCl)CCCl)cc1)[C@@H]23 | 2.39 µg/mL (≈ 4.33 µM) | Unstable | –
O=C1CCC[C@@H]2[C@H]3CCCN4CCC[C@H](CN12)[C@@H]34 [SOPHORIDINE] | 1160 µg/mL (≈ 4670 µM) | – | –
CCCCOC(=O)CCC[C@H]1[C@H]2CCCN3CCC[C@H](CN1C(=O)c1ccc(N(CCCl)CCCl)cc1)[C@@H]23 | 25 µg/mL (≈ 44.1 µM) | Unstable | –
CC(C)OC(=O)CCC[C@@H]1NC[C@H]2CCCN3CCC[C@H]1[C@H]23 | 93.1 µg/mL (≈ 302 µM) | – | –
COC(=O)CCC[C@H]1[C@H]2CCCN3CCC[C@H](CN1C(=O)c1ccc(N(CCCl)CCCl)cc1)[C@@H]23 | 167 µg/mL (≈ 319 µM) | Unstable | –
CCOC(=O)CCC[C@@H]1NC[C@H]2CCCN3CCC[C@H]1[C@H]23 | 223 µg/mL (≈ 757 µM) | – | –
CCCOC(=O)CCC[C@@H]1NC[C@H]2CCCN3CCC[C@H]1[C@H]23 | 196 µg/mL (≈ 635 µM) | – | –
